Assay results: patent US10633669B2, “Herbicide-resistant protein, encoding gene and use thereof” (BEIJING DABEINONG TECHNOLOGY GROUP CO., LTD., priority 2015, dated 2020)

Legend:
[1] = system: Arabidopsis T1 plants transformed with 24DT11 nucleotide sequence; test: Herbicide resistance effect test of transgenic Arabidopsis T1 plants (spray); assay type: in vivo, Arabidopsis thaliana; details: genotype 24DT11
Description: (§1) 24DT11 gene was used to transform Arabidopsis for the first time. At first, T1 transformants were selected from the background of un-transformed seeds, using glufosinate-ammonium selection scheme. About 20000 T1 seeds are screened among which 282 strains of T1 generation positive transformants (PAT gene) were identified, i.e. the transformation efficiency was about 1.4%. Herbicide resistance effect tests to 2,4-D dimethyl ammonium salt and agroxone of Arabidopsis T1 plants transformed with 24DT11 nucleotide sequence, control nucleotide sequence respectively and wild-type Arabidopsis plants were performed after 18 days of planting.
(§2) Arabidopsis T1 plants transformed with 24DT11 nucleotide sequence, control nucleotide sequence respectively and wild-type Arabidopsis plants were sprayed with 2,4-D dimethyl ammonium salt (560 g ae/ha, 1-fold concentration in field), agroxone (560 g ae/ha, 1-fold concentration in field) and blank solvent (water). Resistance conditions of the plants were counted 7 days and 14 days after spraying. Plants with growth conditions consistent with blank solvent (water) 7 days after spaying were classified as highly resistant plants; Plants with curly rosette leaves 7 days after spaying were classified as moderately resistant plants; Plants incapable of bolting 14 days after spaying were classified as low-resistant plants and the dead plants 14 days after spaying were classified as non-resistant plants. Because each Arabidopsis T1 plant is an independent transformation event, significant differences of individual T1 responses can be expected under a given dose.

[2] = system: Arabidopsis T1 plants transformed with control nucleotide sequence; test: Herbicide resistance effect test of Arabidopsis T1 plants with control sequence (spray); assay type: in vivo, Arabidopsis thaliana; details: genotype Control, 560 g ae/ha
Description: as §1, §2

[3] = system: wild-type Arabidopsis plants; test: Herbicide resistance effect test of wild-type Arabidopsis (spray); assay type: in vivo, Arabidopsis thaliana; details: genotype Wild, 560 g ae/ha
Description: as §1, §2

[4] = system: Soybean plants containing 24DT11 nucleotide sequence (S1, S2 and S3); test: Herbicide-resistance effect of transgenic soybean plants (spray, damage degree); assay type: in vivo; details: for Average damage % 6HAT: 6 hours after spraying; for Average damage % 2DAT: 2 days after spraying; for Average damage % 7DAT: 7 days after spraying; for Average damage % 14DAT: 14 days after spraying
Method: (§3) Herbicide resistance effects tests to 2,4-D dimethyl ammonium salt and agroxone of soybean plants containing 24DT11 nucleotide sequence and control nucleotide sequence respectively and wild type soybean plants (stages V3-V4) were performed respectively.
(§4) Soybean plants containing 24DT11 nucleotide sequence, control nucleotide sequence and wild type soybean plants were taken and spayed with 2,4-D dimethyl ammonium salt (2240 g ae/ha, four-folds concentration in field), agroxone (2240 g ae/ha, four-folds concentration in field) and blank solvent (water). Take statistics of the damage degree of each plant caused by herbicides according to the curling degree of leaves and the damage degree of growing point six hours ([…]), two days (2DAT), seven days (7DAT) and 14 days (14DAT) after spraying respectively: if leaves are flat like wild-type leaves and the growing point is intact, the damage degree is 0%; if leaves curl up and wilt and the growing point is died, the damage degree is 100%. There are three strains contained a transferred 24DT11 nucleotide sequence (S1, S2 and S3), two strains contained a transferred control sequence (S4 and S5) and one wild-type strain (CK1) in total; select 10˜15 plants from each strain for testing.

[5] = system: Soybean plants containing control nucleotide sequence (S4 and S5); test: Herbicide-resistance effect of soybean plants with control sequence (spray, damage degree); assay type: in vivo; details: 2240 g ae/ha; for Average damage % 6HAT: 6 hours after spraying; for Average damage % 2DAT: 2 days after spraying; for Average damage % 7DAT: 7 days after spraying; for Average damage % 14DAT: 14 days after spraying
Method: as §3, §4

[6] = system: wild type soybean plants (CK1); test: Herbicide-resistance effect of wild type soybean (spray, damage degree); assay type: in vivo; details: wild-type soybean strain CK1, 2240 g ae/ha
Method: as §3, §4

[7] = system: Corn plants containing 24DT11 nucleotide sequence (S6, S7 and S8); test: Herbicide-resistance effect test of transgenic corn plants (spray, prop root development); assay type: in vivo; details: 21 days after spraying
Method: (§5) Herbicide resistance effects tests to 2,4-D dimethyl ammonium salt and agroxone of corn plants containing 24DT11 nucleotide sequence, control nucleotide sequence respectively and wild type corn plants (stages V3-V4) were performed respectively.
(§6) Corn plants containing 24DT11 nucleotide sequence, control nucleotide sequence respectively and wild type corn plants were taken and spayed with 2,4-D dimethyl ammonium salt (8960 g ae/ha, 16-folds concentration in field), agroxone (8960 g ae/ha, 16-folds concentration in field) and blank solvent (water) respectively. Prop root development was counted 21 days after spaying. Three strains (S6, S7 and S8) of corn plants transformed with 24DT11 nucleotide sequence, two strains (S9 and S10) of corn plants transformed with control nucleotide sequence and 1 strain of wild type (CK2) corn were selected and 10-15 plants from each stain were tested.

[8] = system: Corn plants containing control nucleotide sequence (S9 and S10); test: Herbicide-resistance effect test of corn plants with control sequence (spray, prop root development); assay type: in vivo; details: 8960 g ae/ha, 21 days after spraying
Method: as §5, §6

[9] = system: wild type corn plants (CK2); test: Herbicide-resistance effect test of wild type corn (spray, prop root development); assay type: in vivo; details: wild type corn strain CK2; 8960 g ae/ha; 21 days after spraying
Method: as §5, §6

[10] = curly rosette leaves 7 days after spraying
[11] = growth consistent with blank solvent 7 days after spraying
[12] = incapable of bolting 14 days after spraying
[13] = soybean strain S1 (24DT11), 2240 g ae/ha
[14] = soybean strain S2 (24DT11), 2240 g ae/ha
[15] = soybean strain S3 (24DT11), 2240 g ae/ha
[16] = soybean strain S4 (control sequence)
[17] = soybean strain S5 (control sequence)
[18] = corn strain S6 (24DT11), 8960 g ae/ha
[19] = corn strain S7 (24DT11), 8960 g ae/ha
[20] = corn strain S8 (24DT11), 8960 g ae/ha
[21] = corn strain S9 (control sequence)
[22] = corn strain S10 (control sequence)

Question: `Cc1cc(Cl)ccc1OCC(=O)O` [agroxone] was tested. Which “High resistant (number of plants)” value ([1]; 560 g ae/ha (1-fold field concentration), growth consistent with blank solvent 7 days after spraying) did it give?
Answer: 22

Question: And the “Moderate resistant (number of plants)” value ([1]; 560 g ae/ha, curly rosette leaves 7 days after spraying)?
Answer: 4

Question: What about the “Non-resistant (number of plants)” value ([1]; 560 g ae/ha, dead 14 days after spraying) of the same molecule?
Answer: 3

Question: What about the “Low resistant (number of plants)” value ([1]; 560 g ae/ha, incapable of bolting 14 days after spraying) of the same molecule?
Answer: 2

Question: What about the “Moderate resistant (number of plants)” value [2, 10] of the same molecule?
Answer: 0

Question: What about the “Non-resistant (number of plants)” value ([2]; dead 14 days after spraying) of the same molecule?
Answer: 32

Question: And the “High resistant (number of plants)” value [2, 11]?
Answer: 0

Question: What about the “Low resistant (number of plants)” value [2, 12] of the same molecule?
Answer: 0

Question: What about the “Moderate resistant (number of plants)” value [3, 10] of the same molecule?
Answer: 0

Question: And the “Non-resistant (number of plants)” value ([3]; dead 14 days after spraying)?
Answer: 32

Question: And the “High resistant (number of plants)” value [3, 11]?
Answer: 0

Question: What about the “Low resistant (number of plants)” value [3, 12] of the same molecule?
Answer: 0

Question: And the “Average damage % 6HAT” value ([4]; soybean strain S1 (24DT11), 2240 g ae/ha (4-fold field))?
Answer: 12%

Question: What about the “Average damage % 2DAT” value [4, 13] of the same molecule?
Answer: 7%

Question: And the “Average damage % 7DAT” value [4, 13]?
Answer: 0%

Question: What about the “Average damage % 14DAT” value [4, 13] of the same molecule?
Answer: 0%

Question: And the “Average damage % 6HAT” value [4, 14]?
Answer: 9%

Question: What about the “Average damage % 2DAT” value [4, 14] of the same molecule?
Answer: 5%

Question: And the “Average damage % 7DAT” value [4, 14]?
Answer: 0%

Question: And the “Average damage % 14DAT” value [4, 14]?
Answer: 0%

Question: What about the “Average damage % 6HAT” value [4, 15] of the same molecule?
Answer: 19%

Question: And the “Average damage % 2DAT” value [4, 15]?
Answer: 12%

Question: What about the “Average damage % 7DAT” value [4, 15] of the same molecule?
Answer: 7%

Question: And the “Average damage % 14DAT” value [4, 15]?
Answer: 4%

Question: And the “Average damage % 6HAT” value [5, 16]?
Answer: 38%

Question: And the “Average damage % 2DAT” value [5, 16]?
Answer: 69%

Question: What about the “Average damage % 7DAT” value [5, 16] of the same molecule?
Answer: 87%

Question: And the “Average damage % 14DAT” value [5, 16]?
Answer: 100%

Question: And the “Average damage % 6HAT” value [5, 17]?
Answer: 47%

Question: What about the “Average damage % 2DAT” value [5, 17] of the same molecule?
Answer: 74%

Question: And the “Average damage % 7DAT” value [5, 17]?
Answer: 92%

Question: What about the “Average damage % 14DAT” value [5, 17] of the same molecule?
Answer: 100%

Question: And the “Average damage % 6HAT” value ([6]; 6 hours after spraying)?
Answer: 34%

Question: What about the “Average damage % 2DAT” value ([6]; 2 days after spraying) of the same molecule?
Answer: 61%

Question: And the “Average damage % 7DAT” value ([6]; 7 days after spraying)?
Answer: 82%

Question: And the “Average damage % 14DAT” value ([6]; 14 days after spraying)?
Answer: 100%

Question: And the “Normal development of brace roots (number of plants)” value ([7]; corn strain S6 (24DT11), 8960 g ae/ha (16-fold field))?
Answer: 11

Question: What about the “Abnormal development of brace roots (number of plants)” value (“Abnormal development of brace roots” below) [7, 18] of the same molecule?
Answer: 0

Question: And the “Proportion of normal development of brace roots” value (“Proportion” for short) [7, 18]?
Answer: 100.00%

Question: And the “Abnormal development of brace roots” value [7, 19]?
Answer: 0

Question: And the “Normal development of brace roots (number of plants)” value [7, 19]?
Answer: 11

Question: And the “Proportion” value [7, 19]?
Answer: 100.00%

Question: And the “Abnormal development of brace roots” value [7, 20]?
Answer: 0

Question: And the “Normal development of brace roots (number of plants)” value [7, 20]?
Answer: 12

Question: And the “Proportion” value [7, 20]?
Answer: 100.00%

Question: And the “Abnormal development of brace roots” value [8, 21]?
Answer: 14

Question: And the “Normal development of brace roots (number of plants)” value [8, 21]?
Answer: 0

Question: What about the “Proportion” value [8, 21] of the same molecule?
Answer: 0%

Question: What about the “Abnormal development of brace roots” value [8, 22] of the same molecule?
Answer: 12

Question: What about the “Normal development of brace roots (number of plants)” value [8, 22] of the same molecule?
Answer: 0

Question: And the “Proportion” value [8, 22]?
Answer: 0%

Question: What about the “Abnormal development of brace roots” value [9] of the same molecule?
Answer: 15

Question: And the “Normal development of brace roots (number of plants)” value [9]?
Answer: 0

Question: What about the “Proportion” value [9] of the same molecule?
Answer: 0%
